The text below walks through data of patent US9896441B2 (Lycera Corporation, priority 2014, dated 2018).

For one test, the target named is T1, RORγ-LBD (Homo sapiens, UniProt P51449).
T1 construct: made in house; host or cells: SF9 cells (baculovirus); used as diluted lysate
T1 sequence (P51449 269-508 limits assumed): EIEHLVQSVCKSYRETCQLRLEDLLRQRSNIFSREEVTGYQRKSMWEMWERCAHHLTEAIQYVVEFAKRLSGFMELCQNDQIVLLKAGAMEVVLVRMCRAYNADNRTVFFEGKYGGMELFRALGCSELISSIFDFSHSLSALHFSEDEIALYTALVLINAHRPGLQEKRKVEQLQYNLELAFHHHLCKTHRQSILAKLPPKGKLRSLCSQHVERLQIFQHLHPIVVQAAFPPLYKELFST
Briefly: RORγ-Ligand Binding Domain (LBD) TR-FRET Assay.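 On TR-FRET Assay Max Response: 665/615 nm signal ratio set to 100 without ursolic acid or test compound.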 Format: biochemical. Particulars: for TR-FRET Assay Max Response: maximum response. In outline:
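Lysate from SF9 cells expressing His-RORγ-LBD is diluted to about 3 nM final in 50 mM Tris pH 7.0 assay buffer. A biotin-tagged SRC1 LXXLL peptide goes in at 200 nM final, plus ursolic acid at 2 μM final. Test compounds carry 1% DMSO final; signal read by TR-FRET.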
On the technique in general: Time-resolved FRET reads energy transfer from a long-lived donor to a nearby acceptor.

The target in another test is T2, Gal4-RORγ-LBD (Homo sapiens, UniProt P51449).
T2 construct: expressed in transfected cells
T2 sequence (P51449 269-508 limits assumed): T1 sequence (P51449 269-508 limits assumed)
In words: Gal4-RORγ Luciferase Reporter Assay in HEK-293T Cells. Format: cell-based. Particulars: HEK-293 cells; for Gal4-RORγ Assay Max Response: maximum response. In outline:
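Max Response was taken as the upper plateau of a 4-parameter logistic fit of luciferase signal, normalized to 100 for wells without ursolic acid or compound. Transiently Gal4-RORγ-LBD/Gal4-luc transfected HEK-293 cells carrying […] ursolic acid were incubated with test compounds (0.2% DMSO) overnight at 37 °C and read with One-Glo.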
Background: In a reporter assay the amount or activity of a reporter protein is the signal.

Where [1] appears, read: luciferase reporter, in presence of ursolic acid.
The mark [2] stands for this setting: luciferase reporter, with ursolic acid.

Where only a bound is given, the exact number is not on record here.

As usually defined, the EC50 is the concentration needed to bring the measured effect to its halfway point. Consider `C/C(=C\c1ccc2c(c1)N(S(=O)(=O)c1cccc(C(F)(F)F)c1)C[C@H](CCN1CCOCC1)O2)c1c(F)cccc1Cl` [Example 119A, (S,E)-6-(2-(2-chloro-6-fluorophenyl)prop-1-en-1-yl)-2-(2-morpholinoethyl)-4-((3-(trifluoromethyl)phenyl)sulfonyl)-3,4-dihydro-2H-benzo[b][1,4]oxazine], for which, on RORγ-LBD (RORγ-LBD TR-FRET assay), the EC50 is under 500 nM and the “TR-FRET Assay Max Response” value is “**** (a value greater than 200)”. Also, at Gal4-RORγ-LBD (setting [1]), the 50% effective concentration (EC50) was under 500 nM and the “Gal4-RORγ Assay Max Response” value was “** (a value in the range of greater than 90 to 150)”.

Turning to `COC(=O)CC[C@H]1CN(S(=O)(=O)c2cccc(C(F)(F)F)c2)c2cc(/C=C/c3c(OC)cccc3C(F)(F)F)ccc2O1` [Example 89ES, methyl (S,E)-3-(6-(2-methoxy-6-(trifluoromethyl)styryl)-4-((3-(trifluoromethyl)phenyl)-sulfonyl)-3,4-dihydro-2H-benzo[b][1,4]oxazin-2-yl)propanoate], the EC50 on RORγ-LBD (RORγ-LBD TR-FRET) was under 500 nM; on Gal4-RORγ-LBD (setting [2]), 500 to 5000 nM.

Regarding `O=C(O)CC[C@H]1CN(S(=O)(=O)c2cccc(C(F)(F)F)c2)c2cc(C=C3CCCC3)ccc2O1` [Example 92, (S)-3-(6-(Cyclopentylidenemethyl)-4-((3-(trifluoromethyl)phenyl)sulfonyl)-3,4-dihydro-2H-benzo[b][1,4]oxazin-2-yl)propanoic acid], the EC50 is under 500 nM on RORγ-LBD (RORγ-LBD TR-FRET) and 500 to 5000 nM on Gal4-RORγ-LBD (setting [2]).

For `CCOc1nn(CC)cc1S(=O)(=O)N1C[C@H](CCC(=O)O)Oc2ccc(/C=C/c3cccc(Cl)n3)cc21` [Example 89AA, (S,E)-3-(6-(2-(6-chloropyridin-2-yl)vinyl)-4-((3-ethoxy-1-ethyl-1H-pyrazol-4-yl)sulfonyl)-3,4-dihydro-2H-benzo[b][1,4]oxazin-2-yl)propanoic acid], the EC50 was 500 to 5000 nM on RORγ-LBD (RORγ-LBD TR-FRET) and over 10000 nM on Gal4-RORγ-LBD (setting [2]).

On to `CCOc1ncc(C(F)(F)F)cc1S(=O)(=O)N1C[C@H](CCC(=O)O)Oc2ccc(/C=C/c3c(Cl)cccc3C(C)(F)F)cc21` [Example 89FG, (S,E)-3-(6-(2-chloro-6-(1,1-difluoroethyl)styryl)-4-((2-ethoxy-5-(trifluoromethyl)-pyridin-3-yl)sulfonyl)-3,4-dihydro-2H-benzo[b][1,4]-oxazin-2-yl)propanoic acid], for which the EC50 on RORγ-LBD (RORγ-LBD TR-FRET) and on Gal4-RORγ-LBD (setting [2]) was under 500 nM in each case.

On to `COc1cc(S(=O)(=O)N2c3cc(/C=C/c4c(F)cccc4Cl)ccc3O[C@@H](CO)[C@H]2C)ccc1F` [Example 136, ((2R,3R)-6-((E)-2-Chloro-6-fluorostyryl)-4-((4-fluoro-3-methoxyphenyl)sulfonyl)-3-methyl-3,4-dihydro-2H-benzo[b][1,4]oxazin-2-yl)methanol], for which, on RORγ-LBD (RORγ-LBD TR-FRET assay), the concentration for a half-maximal effect (EC50) is under 500 nM and the “TR-FRET Assay Max Response” value is “**** (a value greater than 200)”. In addition, at Gal4-RORγ-LBD (setting [1]), the EC50 is under 500 nM and the “Gal4-RORγ Assay Max Response” value is “** (a value in the range of greater than 90 to 150)”.

`CCOc1ncc(C(F)(F)F)cc1S(=O)(=O)N1C[C@H](CCC(=O)OC)Oc2ccc(/C=C(\C)c3c(F)cccc3Cl)cc21` [Example 33, (S,E)-Methyl 3-(6-(2-(2-chloro-6-fluorophenyl)prop-1-en-1-yl)-4-((2-ethoxy-5-(trifluoromethyl)pyridin-3-yl)sulfonyl)-3,4-dihydro-2H-benzo[b][1,4]oxazin-2-yl)propanoate]: the EC50 on RORγ-LBD (RORγ-LBD TR-FRET) was under 500 nM; at Gal4-RORγ-LBD (setting [2]), 500 to 5000 nM.

`O=C(O)CC[C@H]1CN(S(=O)(=O)c2cccc(C(F)(F)F)c2)c2cc(C3=CCCC3)ccc2O1` [Example 192, (S)-3-(6-(cyclopent-1-en-1-yl)-4-((3-(trifluoromethyl)phenyl)sulfonyl)-3,4-dihydro-2H-benzo[b][1,4]oxazin-2-yl)propanoic acid]: the EC50 on RORγ-LBD (with 2 μM ursolic acid (RORγ antagonist), highest test concentration 10 μM) is under 500 nM; at Gal4-RORγ-LBD (ursolic acid present, luciferase readout), 500 to 5000 nM.

In the case of `COC(=O)CC[C@H]1CN(S(=O)(=O)c2cccc(OC(F)F)c2)c2cc(/C=C/c3ccccc3C#N)ccc2O1` [Example 89AR, (S,E)-methyl 3-(6-(2-cyanostyryl)-4-((3-(difluoromethoxy)phenyl)sulfonyl)-3,4-dihydro-2H-benzo[b][1,4]-oxazin-2-yl)propanoate], the EC50 was under 500 nM at RORγ-LBD (RORγ-LBD TR-FRET) and 500 to 5000 nM at Gal4-RORγ-LBD (setting [2]).

`CCOc1ncc(Cl)cc1S(=O)(=O)N1C[C@H](CCC(=O)OC)Oc2ccc(/C=C(\C)c3c(F)cccc3Cl)cc21` [Example 67, Methyl (S,E)-3-(4-((5-chloro-2-ethoxypyridin-3-yl)sulfonyl)-6-(2-(2-chloro-6-fluorophenyl)prop-1-en-1-yl)-3,4-dihydro-2H-benzo[b][1,4]oxazin-2-yl)propanoate]: the results for the EC50 on RORγ-LBD (RORγ-LBD TR-FRET) and on Gal4-RORγ-LBD (setting [2]) were under 500 nM and 500 to 5000 nM, respectively.

As for `C/C(=C\c1ccc2c(c1)N(S(=O)(=O)c1cc(C(F)(F)F)cnc1OCCO)C[C@H](CCC(=O)N1CCC(C(=O)O)CC1)O2)c1c(F)cccc1Cl` [Example 129K, (S,E)-1-(3-(6-(2-(2-chloro-6-fluorophenyl)-prop-1-en-1-yl)-4-((2-(2-hydroxyethoxy)-5-(trifluoromethyl)pyridin-3-yl)sulfonyl)-3,4-dihydro-2H-benzo[b][1,4]oxazin-2-yl)propanoyl)piperidine-4-carboxylic acid], at RORγ-LBD (RORγ-LBD TR-FRET assay), the EC50 is under 500 nM and the “TR-FRET Assay Max Response” value is given as “*** (a value in the range of greater than 150 to 200)”. Also, at Gal4-RORγ-LBD (setting [1]), the EC50 was in the range of 500 to 5000 nM and the “Gal4-RORγ Assay Max Response” value is on record as “** (a value in the range of greater than 90 to 150)”.

`CC1CCC(=Cc2ccc3c(c2)N(S(=O)(=O)c2cccc(C(F)(F)F)c2)C[C@H](CCC(=O)O)O3)CC1` (stereo partly drawn) [Example 95K, 3-((2S)-6-((4-methylcyclo-hexylidene)methyl)-4-((3-(trifluoromethyl)phenyl)sulfonyl)-3,4-dihydro-2H-benzo[b][1,4]oxazin-2-yl)propanoic acid]: the 50% effective concentration (EC50) on RORγ-LBD (RORγ-LBD TR-FRET) was under 500 nM; on Gal4-RORγ-LBD (setting [2]) it was 500 to 5000 nM.

For the compound `Cn1ncnc1/C=C/c1ccc2c(c1)N(S(=O)(=O)c1cccc(C(F)(F)F)c1)C[C@H](CCC(=O)O)O2` [Example 89CJ, (S,E)-3-(6-(2-(1-methyl-1H-1,2,4-triazol-5-yl)vinyl)-4-((3-(trifluoromethyl)phenyl)sulfonyl)-3,4-dihydro-2H-benzo[b][1,4]-oxazin-2-yl)propanoic acid], the EC50 at RORγ-LBD (RORγ-LBD TR-FRET) and on Gal4-RORγ-LBD (setting [2]) was over 10000 nM throughout.

As to `CCOc1ncc(Cl)cc1S(=O)(=O)N1C[C@H](CCC(=O)O)Oc2ccc(/C=C/c3c(Cl)cccc3C(F)(F)F)cc21` [Example 89CZ, (S,E)-3-(4-((5-chloro-2-ethoxypyridin-3-yl)sulfonyl)-6-(2-chloro-6-(trifluoromethyl)-styryl)-3,4-dihydro-2H-benzo-[b][1,4]oxazin-2-yl)propanoic acid], the values for the EC50 on RORγ-LBD (RORγ-LBD TR-FRET) and on Gal4-RORγ-LBD (setting [2]) were under 500 nM and 500 to 5000 nM, respectively.

Turning to `C/C(=C\c1ccc2c(c1)N(S(=O)(=O)c1cc(C(F)(F)F)ccc1OCCO)C[C@H](CCC(=O)N1CCC(C(=O)O)CC1)O2)c1c(F)cccc1Cl` [Example 129M, (S,E)-1-(3-(6-(2-(2-chloro-6-fluorophenyl)-prop-1-en-1-yl)-4-((2-(2-hydroxyethoxy)-5-(trifluoromethyl)phenyl)sulfonyl)-3,4-dihydro-2H-benzo[b][1,4]oxazin-2-yl)propanoyl)piperidine-4-carboxylic acid], on RORγ-LBD (RORγ-LBD TR-FRET assay), the concentration giving a half-maximal response (EC50) is under 500 nM and the “TR-FRET Assay Max Response” value is “*** (a value in the range of greater than 150 to 200)”. At Gal4-RORγ-LBD (setting [1]), the EC50 was in the range of 500 to 5000 nM and the “Gal4-RORγ Assay Max Response” value is given as “** (a value in the range of greater than 90 to 150)”.
